Values of other authors as cited in US20090318550A1, “Emulsions comprising at least one retinoid and benzoyl peroxide” (GALDERMA RESEARCH & DEVELOPMENT, priority 2006, published 2009).
Like-named read-outs stand apart in the source and are kept apart here.

Assays:
[1] = in presence of benzoyl peroxide formulation
[2] = for Decomposition time: 40° C.

Compound: COc1ccc(-c2ccc3cc(C(=O)O)ccc3c2)cc1C12CC3CC(CC(C3)C1)C2 [adapalene, 6-(3-(1-adamantyl)-4-methoxyphenyl)-2-naphthoic acid]
- Decomposition of the retinoid ([1]; during 24 hours): no decomposition

Compound: O=C(OOC(=O)c1ccccc1)c1ccccc1 [benzoyl peroxide]
- Decomposition time ([2]; in solution in PEG 400 (0.5 mg/g)): 1.4 days
- Decomposition time ([2]; in solution in ethanol): 29 days
- Decomposition time ([2]; in solution in propylene glycol): 53 days
- Decomposition in suspension (dispersed form) ([2]; in water and propylene glycol, storing for 90 days): not decomposed

Compound: CC1=C(/C=C/C(C)=C/C=C/C(C)=C/C(=O)O)C(C)(C)CCC1 [tretinoin]
- Decomposition of the retinoid ([1]; 2 hours): 50%
- Decomposition of the retinoid ([1]; 4 hours): 95%
